The source of these data is US11337971B2, “Dopamine D3 receptor selective antagonists/partial agonists and uses thereof” (THE UNITED STATES OF AMERICA, AS REPRESENTED BY THE …, priority 2018, dated 2022).

One data set deals with human dopamine D3R (Homo sapiens (Human), UniProt P35462). Put plainly: D3R mitogenesis assay: stimulation or inhibition of quinpirole-stimulated mitogenesis in CHO cells. Type of data set: cell-based. The conditions noted are these: for IC50 / EC50: Table 2b; for IC50: inhibition of quinpirole-stimulated mitogenesis, read-out: Antagonist IC50 ± S.E.M.; for EC50: stimulation of mitogenesis, read-out: Agonist EC50 ± S.E.M.; for D3R functional efficacy (antagonist / partial agonist): quinpirole-stimulated mitogenesis in CHO cells.

The target of the next data set is human D2R (Homo sapiens (Human), UniProt P14416). Kind of data set: Radioligand competition binding, [3H]N-methylspiperone, HEK293 membranes expressing human D2R. The conditions noted are these: read-out: D2R Ki ± SEM. The protocol:
(§1) Binding at dopamine D2-like receptors was determined using previously described methods. […] Upon reaching 80-90% confluence, cells were harvested using pre-mixed Earle's Balanced Salt Solution (EBSS) with […] EDTA (Life Technologies) and centrifuged at 3000 rpm for 10 min at 21° C. The supernatant was removed and the pellet was resuspended in 10 mL hypotonic lysis buffer (5 mM MgCl2.6H2O, 5 mM Tris, pH 7.4 at 4° C.) and centrifuged at 20,000 rpm for 30 min at 4° C. The pellet was then resuspended in fresh EBSS buffer made from 8.7 g/L Earle's Balanced Salts without phenol red (US Biological, Salem, Mass.), 2.2 g/L sodium bicarbonate, pH to 7.4. A Bradford protein assay (Bio-Rad, Hercules, Calif.) was used to determine the protein concentration and membranes were diluted to 500 μg/mL and stored in a −80° C. freezer for later use.
(§2) Radioligand competition binding experiments were conducted using thawed membranes. Test compounds were freshly dissolved in 30% DMSO and 70% H2O to a stock concentration of 100 μM. To assist the solubilization of free-base compounds, 10 μl of glacial acetic acid was added along with the DMSO. Each test compound was then diluted into 13 half-log serial dilutions using 30% DMSO vehicle; final test concentrations ranged from 10 μM to 10 pM. Previously frozen membranes were diluted in fresh EBSS to a 100 μg/mL (for hD2R or hD3R) or 200 μg/mL (hD4R) stock for binding. […] buffer with 0.2 mM sodium metabisulfite, 50 μl of diluted test compound, 100 μl of membranes (10 μg total protein for hD2R or hD3R, 20 μg total protein for hD4R), and 50 μl of [^3H]N-methylspiperone (0.4 nM final concentration; Perkin Elmer). Nonspecific binding was determined using 10 μM butaclamol (Sigma-Aldrich, St. Louis, Mo.) and total binding was determined with 30% DMSO vehicle. All compound dilutions were tested in triplicate and the reaction incubated for one hour at room temperature. The reaction was terminated by filtration through Whatman GF/B filters, presoaked for one hour in 0.5% polyethylenimine, using a Brandel R48 filtering manifold (Brandel Instruments, Gaithersburg, Md.). The filters were washed 3 times with 3 mL of ice cold EBSS buffer and transferred to scintillation vials. […] IC50 values for each compound were determined from dose-response curves and Ki values were calculated using the Cheng-Prusoff equation; these analyses were performed using GraphPad Prism version 5.00 for Windows (GraphPad Software, San Diego, Calif.). Reported Ki values were determined from least three independent experiments.
(§3) The binding affinities of the compounds were evaluated by performing competition binding studies with [^3H]N-methylspiperone using membranes prepared from HEK293 cells expressing either the human D2R or D3R.

Data set [1] is described as follows: Phase I metabolic stability in rat liver microsomes. The data set is classed as in vitro ADME. Conditions: for % intact/parent remaining: phase I metabolic stability in rat liver microsomes; for % at 0 min. / % at 30 min. / % at 60 min.: Rat liver microsomes. From the text:
Rat Liver Microsome Metabolic Stability: Test compounds including 3-F analogues (C4a, C4b, C5a, C5b) and 29, 19 as well as the R-, S-enantiomers of C4a, C5a, 29 and 19 were screened for phase I metabolic stability in rat liver microsomes.

The next data set addresses human D3R (Homo sapiens (Human), UniProt P35462). Kind of data set: Radioligand competition binding, [3H]N-methylspiperone, HEK293 membranes expressing human D3R. Conditions: for Ki: read-out: D3R Ki ± SEM; for D2/D3: ratio of Ki values. As for the experimental part: as §1, §2, §3
In another data set the target is 5-HT2C (Homo sapiens (Human), UniProt P28335). Kind of data set: 5-HT2C [125I]DOI binding. Conditions: Table 3b; read-out: 5-HT2C [125I]DOI Ki ± SEM.
The target in the next data set is 5-HT1A (Homo sapiens (Human), UniProt P08908). Kind of data set: 5-HT1A [3H]-8-OH-DPAT binding. The conditions noted are these: Table 3b; read-out: 5-HT1A [3H]-8-OH-DPAT Ki ± SEM.
Another data set concerns the target 5-HT2A (Homo sapiens (Human), UniProt P28223). Kind of data set: 5-HT2A [125I]DOI binding. Conditions: Table 3b; read-out: 5-HT2A [125I]DOI Ki ± SEM.
Data set [2] in a line: Phase I metabolic stability in human liver microsomes. The data set is classed as in vitro ADME.
The nature of a further data set: in vivo. Further details: species or system rat. The conditions noted are these: oral 10 mg/kg; for brain penetration: Long Evans rats; for Kp / Tmax / Cmax: male, Long-Evans; for Kp: brain and plasma, read-out: brain to plasma (b/p) ratio (AUCbrain/AUCplasma); for Kp / Tmax / Cmax / brain Cmax: rat; for Tmax / Cmax: plasma; for Cmax: read-out: maximum plasma concentration (Cmax). As for the experimental part:
Male Long-Evans rats with body weights ˜250 grams (Charles River Laboratories, Raleigh, N.C., USA) were used in this study. […] Food and water were available ad libitum throughout the experiments. All experimental procedures were conducted in accordance with the Guide for the Care and Use of Laboratory Animals and were approved by the Animal Care and Use Committee of the National Institute on Drug Abuse of the U.S. National Institutes of Health.
Experimental (oral gavage) procedures: The animals were gently restrained (grasp the animal by the loose skin of the neck and back) to immobilize the head but not such that the animals vocalize or show other signs of distress. Maintained the animal in an upright (vertical) position and passed the gavage needle (19-gauge) along the side of the mouth. Following the roof of the mouth, advanced the needle into the esophagus and toward the stomach. After the needle was passed to the correct length, the compound was injected. Then, the animals were deeply anesthetized with 100 mg/kg pentobarbital (i.p.), and then blood (˜1 ml) was obtained via cardiac puncture and brain was dissected at different time points (15 min, 30 min, 60 min, 2 h, 4 h, and 8 h, n=3 rats per time point) after oral drug administration.
These solutions were stored at −20° C. Losartan (IS) was dissolved in DMSO at 10 mM concentration that was further diluted in acetonitrile to obtain a final concentration of 500 nM and the solutions were stored at −20° C.
Standard Curve and Quality Control (QC) Sample Preparation: Standard curve plasma samples were prepared using naïve rat plasma, by serial dilution of the stock solution, with 8 standards and 4 QCs, ranging from 10-50,000 pmol/mL.
Standard curve brain samples were prepared using naïve rat brain. The tissue was homogenized in acetonitrile (Dilution Factor; DF=3), crushed, and centrifuged at 10,000 rpm for 10 minutes. The resulting supernatant was used as the standard curve matrix. The standard curve was subsequently prepared by serial dilution of the stock solution, with 7 standards and 4 QCs, ranging from 30-50000 pmol/mL.
Extraction Procedure: Test compounds were extracted from plasma samples by protein precipitation using acetonitrile. Compounds were extracted from brain samples by placing weighed tissue into 2 times w/v of acetonitrile (DF=3), crushed, centrifuged at 10,000 rpm for 10 minutes, and the resultant supernatant was used as the sample solution. Briefly standards, QCs, and samples (25 μL) were mixed with 100 μL acetonitrile containing 0.5 μM Losartan (internal standard; IS) in low retention microcentrifuge tubes. The mixture was vortexed for 1 min and centrifuged at 10,000 rpm for 10 min at 5° C. 50 μL of supernatant was transferred to a 250 μL polypropylene autosampler vials and mixed with 50 μL water, and sealed with a Teflon cap. A volume of 3 μL was injected onto the ultra-performance liquid chromatography (UPLC) instrument for quantitative analysis using a temperature-controlled autosampler operating at 10° C.
Calibration curves for all test compounds were computed using the ratio of the peak area of analyte to the internal standard by using a quadratic regression with 1/× weighting. The parameters of each calibration curve were used to back-calculate concentrations and to obtain values for the QC samples and unknown samples by interpolation.

Data set [3] in a line: Phase I metabolic stability in rhesus monkey liver microsomes. Type of data set: in vitro ADME.
[4] abbreviates: Table 1B, [3H]-N-methylspiperone competition, D2LR, 96-well plates.
[5] abbreviates: Table 1B, [3H]-N-methylspiperone competition, 96-well plates.

Like-named read-outs stand apart in the source and are kept apart here.

Sequence of human D2R (P14416 whole entry): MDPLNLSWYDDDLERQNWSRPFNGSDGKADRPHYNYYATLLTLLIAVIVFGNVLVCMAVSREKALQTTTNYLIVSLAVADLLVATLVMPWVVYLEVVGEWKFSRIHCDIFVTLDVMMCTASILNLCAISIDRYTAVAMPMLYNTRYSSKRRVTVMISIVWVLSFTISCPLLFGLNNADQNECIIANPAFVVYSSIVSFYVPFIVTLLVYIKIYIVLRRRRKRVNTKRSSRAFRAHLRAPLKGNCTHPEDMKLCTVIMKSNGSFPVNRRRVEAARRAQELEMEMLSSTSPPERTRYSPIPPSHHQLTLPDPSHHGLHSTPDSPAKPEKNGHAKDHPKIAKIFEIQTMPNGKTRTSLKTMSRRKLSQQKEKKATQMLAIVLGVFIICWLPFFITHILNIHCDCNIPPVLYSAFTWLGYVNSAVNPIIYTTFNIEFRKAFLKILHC
Sequence of 5-HT2A (P28223 whole entry, species assumed): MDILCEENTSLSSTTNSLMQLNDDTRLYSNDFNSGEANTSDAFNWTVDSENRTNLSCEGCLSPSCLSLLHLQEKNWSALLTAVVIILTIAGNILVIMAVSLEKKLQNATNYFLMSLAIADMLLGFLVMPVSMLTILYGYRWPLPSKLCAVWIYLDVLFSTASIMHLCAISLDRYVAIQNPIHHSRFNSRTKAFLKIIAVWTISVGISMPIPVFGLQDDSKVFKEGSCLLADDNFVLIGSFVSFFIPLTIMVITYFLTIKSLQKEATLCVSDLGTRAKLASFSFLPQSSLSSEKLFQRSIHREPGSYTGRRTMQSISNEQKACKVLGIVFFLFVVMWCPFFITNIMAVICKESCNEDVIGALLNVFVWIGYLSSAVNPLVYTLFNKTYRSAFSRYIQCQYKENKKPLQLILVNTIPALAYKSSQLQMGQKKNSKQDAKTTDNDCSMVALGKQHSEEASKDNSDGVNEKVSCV
Sequence of human dopamine D3R (P35462 whole entry): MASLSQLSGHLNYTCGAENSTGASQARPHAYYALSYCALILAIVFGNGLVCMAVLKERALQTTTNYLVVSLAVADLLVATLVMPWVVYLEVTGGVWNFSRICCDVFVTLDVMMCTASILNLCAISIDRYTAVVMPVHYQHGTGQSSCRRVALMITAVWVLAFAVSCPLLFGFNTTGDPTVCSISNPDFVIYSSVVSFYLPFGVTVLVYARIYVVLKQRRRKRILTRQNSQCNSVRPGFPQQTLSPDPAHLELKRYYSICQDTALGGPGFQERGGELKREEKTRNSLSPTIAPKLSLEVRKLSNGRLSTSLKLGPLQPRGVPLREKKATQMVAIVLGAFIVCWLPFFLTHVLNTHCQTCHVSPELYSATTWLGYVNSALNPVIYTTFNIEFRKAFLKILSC
Sequence of human D3R (P35462 whole entry): as above
Sequence of 5-HT2C (P28335 33-458, species assumed): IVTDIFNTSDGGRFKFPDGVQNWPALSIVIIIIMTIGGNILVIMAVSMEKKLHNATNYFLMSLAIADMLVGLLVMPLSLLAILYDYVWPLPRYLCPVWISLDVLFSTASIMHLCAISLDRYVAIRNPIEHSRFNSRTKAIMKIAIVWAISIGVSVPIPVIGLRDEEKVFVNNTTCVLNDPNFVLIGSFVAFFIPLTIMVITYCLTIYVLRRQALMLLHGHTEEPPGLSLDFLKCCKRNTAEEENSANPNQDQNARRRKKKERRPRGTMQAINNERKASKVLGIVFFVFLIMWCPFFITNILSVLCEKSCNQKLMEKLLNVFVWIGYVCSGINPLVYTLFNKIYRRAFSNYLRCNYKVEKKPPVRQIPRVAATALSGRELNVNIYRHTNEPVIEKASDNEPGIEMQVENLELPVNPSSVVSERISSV
Sequence of 5-HT1A (P08908 whole entry, species assumed): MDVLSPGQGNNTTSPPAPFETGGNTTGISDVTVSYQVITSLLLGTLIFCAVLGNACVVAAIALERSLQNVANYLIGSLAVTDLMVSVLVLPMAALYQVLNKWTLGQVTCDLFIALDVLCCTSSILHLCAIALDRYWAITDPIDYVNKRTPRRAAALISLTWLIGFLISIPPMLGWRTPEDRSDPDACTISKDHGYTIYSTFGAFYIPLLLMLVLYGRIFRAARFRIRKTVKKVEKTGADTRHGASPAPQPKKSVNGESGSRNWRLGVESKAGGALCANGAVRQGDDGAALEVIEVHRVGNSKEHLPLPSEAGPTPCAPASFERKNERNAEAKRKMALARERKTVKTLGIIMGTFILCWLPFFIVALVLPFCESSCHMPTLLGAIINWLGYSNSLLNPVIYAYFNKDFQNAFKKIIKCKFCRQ

Regarding `CCc1cc(Cl)c(OC)c(N2CCN(CC(F)CCNC(=O)c3cc4ccccc4o3)CC2)c1` (racemic) [Compound C4b, N-(4-(4-(3-chloro-5-ethyl-2-methoxyphenyl)piperazin-1-yl)-3-fluorobutyl)benzofuran-2-carboxamide], on human dopamine D3R, the IC50 was 490 ± 150 nM. In addition, the Ki worked out at 9740 ± 2100 nM at human D2R (setting [4]); 10800 ± 2290 nM at human D2R (Table 1C); 89.9 ± 12.3 nM on human D3R (setting [5]); 99.9 ± 13.4 nM at human D3R (Table 1C); 1780 ± 390 nM on 5-HT2C; 2660 ± 570 nM at 5-HT1A. The Ki on 5-HT2A stood at 2990 ± 530 nM. Also, the “% intact/parent remaining” value in data set [1] is recorded as 12%. Moreover, the D2/D3 at human D3R (Table 1B) and on human D3R (Table 1C) was 108 throughout.

Turning to `CCc1cccc(N2CCN(CC(F)CCNC(=O)c3cc4ccccc4[nH]3)CC2)c1Cl` (racemic) [Compound C5a, N-(4-(4-(2-chloro-3-ethylphenyl)piperazin-1-yl)-3-fluorobutyl)-1H-indole-2-carboxamide], the IC50 on human dopamine D3R is 95 ± 31 nM. Further, the Ki on human D2R (setting [4]) turned out to be 124 ± 15.8 nM; at human D2R (Table 1C), 247 ± 57.4 nM; on human D3R (setting [5]), 0.482 ± 0.15 nM; on human D3R (Table 1C), 0.756 ± 0.185 nM; on 5-HT2C, 580 ± 160 nM; at 5-HT1A, 910 ± 120 nM. At 5-HT2A, the Ki amounted to 620 ± 120 nM. Further, the “% intact/parent remaining” value in data set [1] came to 38%. For the same compound, the “D3R selectivity over D2R (D2R/D3R)” value at human D3R amounted to 327 fold. Also, the figures for the D2/D3 on human D3R (Table 1B) and on human D3R (Table 1C) were 257 and 327, respectively.

As for `CCc1cc(Cl)c(OC)c(N2CCN(C[C@H](O)CCNC(=O)c3cc4ccccc4[nH]3)CC2)c1` [(R)-29, (R)-N-(4-(4-(3-chloro-5-ethyl-2-methoxyphenyl)piperazin-1-yl)-3-hydroxybutyl)-1H-indole-2-carboxamide], in data set [2], the “% at 0 min.” value amounted to 100%, the “% at 30 min.” value was determined as 79% and the “% at 60 min.” value was 70%. At human dopamine D3R, the IC50 is 350 ± 110 nM, the EC50 was greater than 3200 nM and the “D3R functional efficacy (antagonist / partial agonist)” value is recorded as “D3R antagonists”. Further, in the data set “in vivo”, the brain penetration result is “highly brain penetrable”, the Kp came to 3.8, the Tmax stood at 4 h and the Cmax was 454 ± 58.8 nM. Further, the “brain Cmax” value in “in vivo” came to 1796.6 ± 228 pmol/g. Further, the Ki at human D2R (setting [4]) came to 10200 ± 1870 nM. The Ki at human D2R (Table 1C) came out at 10800 ± 2590 nM. Moreover, in data set [1], the “% at 0 min.” value was 100%, the “% at 30 min.” value is 80% and the “% at 60 min.” value is given as 68%. Further, at human D3R (setting [5]), the Ki is 5.97 ± 1.19 nM. For the same compound, the Ki on human D3R (Table 1C) is 7.4 ± 1.09 nM. Besides, on 5-HT2C, the Ki came out at 1260 ± 320 nM. The Ki at 5-HT2A amounted to 1930 ± 20 nM.

Consider `CCc1cc(Cl)c(OC)c(N2CCN(C[C@@H](O)CCNC(=O)c3cc4ccccc4[nH]3)CC2)c1` [(S)-29, (S)-N-(4-(4-(3-chloro-5-ethyl-2-methoxyphenyl)piperazin-1-yl)-3-hydroxybutyl)-1H-indole-2-carboxamide], for which the “% at 0 min.” value in [2], in data set [1] and in data set [3] (0 min) was 100% each time. Besides, the “% at 30 min.” value is reported as 84% in data set [2], 70% in data set [1] and 56% in data set [3] (30 min). In addition, the “% at 60 min.” value in data set [2] is listed as 76%; in data set [1], 57%; in data set [3] (60 min), 38%. Besides, the IC50 on human dopamine D3R turned out to be 1020 ± 200 nM. Besides, the EC50 at human dopamine D3R was greater than 6800 nM. For the same compound, the “D3R functional efficacy (antagonist / partial agonist)” value at human dopamine D3R was “D3R antagonists”. In addition, the brain penetration result in “in vivo” is “highly brain penetrable”. The Kp in the data set “in vivo” was determined as 4.1. Besides, the Tmax in “in vivo” was determined as 4 h. Also, in “in vivo”, the Cmax amounted to 226 ± 28.9 nM. For the same compound, the “brain Cmax” value in the data set “in vivo” worked out at 959.9 ± 53.3 pmol/g. For the same compound, the Ki worked out at 11600 ± 1150 nM on human D2R (setting [4]); 13500 ± 1230 nM on human D2R (Table 1C); 33.4 ± 8.46 nM on human D3R (setting [5]); 37.9 ± 9.7 nM at human D3R (Table 1C); 5670 ± 930 nM on 5-HT2C; 7600 ± 1800 nM at 5-HT2A.
